Experimental data from paper PMC12097015, “Development of MDM2‐Targeting PROTAC for Advancing Bone Regeneration” (Advanced Science, 2025).

Columns and labels:
p53 = p53 level by western blot in hBMSCs; assay type: cell-based, human; conditions: 0.1 µM to 10 µM
Description: Human Bone Marrow‐derived Mesenchymal Stem Cells (hBMSCs) were provided by Professor Lee's laboratory, and cells from passages four to nine were used for all experiments. hBMSCs were cultured in alpha‐minimum essential medium (Welgene, LM008‐01) supplemented with 10% Fetal Bovine Serum (FBS) (Gibco, US origin, 16000–044) and 1% penicillin/streptomycin (Gibco, 15140‐122).
After discarding the medium and washing the cells twice with cold dPBS, the cells were collected using a scraper and lysed using RIPA buffer (GenDEPOT, R4200‐010) containing protease and phosphatase inhibitors (GenDEPOT, P3200‐001). The collected samples were centrifuged at 13 200 rpm for 10 min at 4 °C, and the supernatant containing total protein was collected. SDS‐PAGE gels (10–12%) were prepared, and protein samples were mixed with 5X loading buffer containing reducing agent (Biosesang, S2002) and heated at 98 °C for 5 min. Equal amounts of protein samples were loaded onto a gel, separated by electrophoresis, and transferred onto nitrocellulose membranes using a Dry Transfer Stacks Kit (Invitrogen, IB23001). The membrane was blocked with 5% nonfat milk in 1X TBST for 1 h at room temperature to prevent nonspecific binding. The membranes were incubated with primary antibodies specific to the target proteins overnight at 4 °C with gentle shaking. […]

hBMSCs = assay: Bulk RNA-seq of cultured hBMSCs; assay type: cell-based, human; conditions: CL144 versus Nutlin‐3
Excerpt: ‐Sample Preparation: In accordance with the manufacturer's instructions, total RNA was extracted using Trizol from hBMSCs treated with Nutlin‐3 or CL144 as well as from control cells. Utilizing an Agilent Bioanalyzer RNA ScreenTape kit (Agilent, 5067–5576), the integrity of the RNA (RIN) was verified. All samples with RIN value > 8.0 were used for sequencing.
‐Library Construction: RNA‐seq libraries were constructed according to the manufacturer's instructions for the SRSLY Library Prep kit, which were provided by Claretbio (CBS‐K155B‐24). […] This work fragmented and enriched the mRNA using oligo (dT). After ligating the cDNA fragments to adapters, PCR amplification was performed.
‐Sequencing: The libraries were performed to sequencing on the Nextseq2000 (Illumina) platform, utilizing the SRSLY RNA NanoPlus kit to generate 100 bp paired‐end reads.
‐Data Analysis: FastQC was used to trim the adaptor sequences and remove low‐quality reads from the raw sequencing data (FASTQ files). After that, Hisat2 v2.2.1 was used to align these clean reads with the Human Genome Reference GRCh38. DESeq2 was used for differential expression analysis, while g: Profiler was used for GO enrichment analysis.

rabbit calvaria = assay: Rabbit calvarial vertical onlay graft model; assay type: in vivo, New Zealand white rabbits; conditions: eight weeks, CL144 10 μΜ or rhBMP‐2 3.85 μΜ soaked on BCP carrier
Description: Total six male, New Zealand white rabbits, weighing ≈2.8–3.2 kg were used for the rabbit calvaria onlay graft model. Rabbits were kept in separate cages under standard laboratory conditions with free access to food and water and provided standard meals according to the ARRIVE guidelines. The animals were sacrificed eight weeks postoperatively (n = 6), and each rabbit was divided into three different groups. […] General anesthesia was induced by injecting 65 mg kg^−1 ketamine (Ketalar, Yuhan, Korea) and xylazine (Rompun, Bayer, Korea). A full‐thickness flap was raised under local anesthesia with 2% lidocaine and 1:100 000 epinephrine to expose the calvarial bone. Slits around the sagittal suture were prepared using a trephine bur (7 mm in diameter, 1 mm in depth), and then four perforations of the external cortical bone plate were made. […]
‐Radiographic analysis: A single‐blinded examiner conducted all the measurements. […] The volume of the newly formed bone within the cylinders was measured.
The embedding paraffin blocks were then sectioned into 4 µm thick slices and stained with Masson trichrome. […] Within the cylinder, the total augmented area, area and proportion of newly formed bone, and residual graft materials were measured as previously described.^[ [34] ^]

bone marrow = assay: Immunohistochemistry of femur bone marrow in the OVX model; assay type: in vivo; conditions: OVX mice femur
Description: ‐Immunohistochemistry: Decalcified femurs were fixed in 4% paraformaldehyde (PFA) at 4 °C for 24 h, rinsed three times with phosphate‐buffered saline (PBS), and decalcified in 12.5 mM EDTA (pH 8.0) for 14 days. The specimens were dehydrated through a graded ethanol series (70%, 80%, 95%, 100%) and embedded in paraffin. Longitudinal sections (3 µm thick) were prepared using a microtome, mounted on glass slides, and dried at 55 °C. For deparaffinization, slides were treated with xylene (four 5‐min treatments) and rehydrated through descending ethanol concentrations (100%, 95%, 80%, 70%) in 2‐min intervals. Immunohistochemistry was performed with a ready‐to‐use IHC/ICC kit (BioVision, Inc.). Sections were incubated overnight at room temperature with primary antibodies (1:100) against MDM2, p53, Bcl‐2, and cleaved caspase‐3, followed by a 20‐min incubation with HRP‐conjugated anti‐mouse IgG polymer. After PBS washes, antigen‐antibody complexes were visualized using 3,3′‐diaminobenzidine (DAB) for 10 min, and sections were counterstained with hematoxylin for 1 minute. The stained sections were imaged using a Slide Scanner (Zeiss, Germany).

EGFP‐MDM2 = assay: EGFP-MDM2 fluorescence / live imaging degradation assay; assay type: cell-based
Description: HeLa cells were cultured in DMEM (Welgene, LM001‐05) supplemented with 10% FBS (Welgene, S001‐07). For transient transfection, the cells were seeded at ≈70% confluence. The following day, transfection was performed using Lipofectamine 3000 (Invitrogen, L3000015) for 24 h according to the manufacturer's protocol. The cells were transfected with 100 ng of EGFP‐MDM2 per well in the 96‐well plate and were transfected with 2 µg of MDM2 WT and 2 µg of HA‐ubiquitin, total 4 µg per well in the 6‐well plate.
To construct the EGFP‐MDM2 plasmid DNA, MDM2 WT was amplified by PCR using specific primers. The PCR products were digested with BamH1 and EcoR1 to generate compatible ends. The plasmid backbone, EGFP‐C1, previously digested with the same enzyme, was ligated into the digested PCR product using T4 ligase (Biolabs, M0202S). The resulting plasmid construct was confirmed using restriction enzyme digestion and DNA sequencing. MDM2 WT (#16233) and HA‐ubiquitin (#18712) were purchased from Addgene (used primer sequences, see Table S2, Supporting Information).
Real‐time Live cell imaging (phase contrast, EGFP fluorescence) was performed to monitor EGFP‐MDM2 intensity at 7 min intervals after compound treatment using Cytation5 (Agilent) laser autofocus conditions to capture EGFP fluorescence to assess intensity. For fluorescence imaging, the cells were fixed using 4% PFA and washed three times with 1X dPBS. Fluorescence imaging was performed using the Cytation5. The intensity of fluorescence was assessed by tracking the fluorescence of individual cells in each image using the Time‐lapse analyzer or ROI measure feature of the Fiji ImageJ software (Version 1.54 h, USA).

Compound: COc1ccc(C2=N[C@H](c3ccc(Cl)cc3)[C@H](c3ccc(Cl)cc3)N2C(=O)N2CCN(CC(=O)NCCCCCCCCOc3cccc4c3C(=O)N(C3CCC(=O)NC3=O)C4=O)C(=O)C2)c(OC(C)C)c1 (stereo in doubt) [CL144]
- p53 levels (p53): elevated p53 levels in a dose‐dependent manner
- COL8A2 expression (log2FC) (hBMSCs): 6.02
- COL11A1 expression (log2FC) (hBMSCs): 6.23
- amount of new bone (histomorphometric analysis) (rabbit calvaria): 25.58 ± 11.70%
- expression of apoptosis markers Bcl‐2 or cleaved caspase‐3 (bone marrow toxicity) (bone marrow; IHC): no corresponding increase
- MDM2 expression (IHC) (bone marrow; compared to Con and DMSO group): effectively reduced MDM2 expression
- p53 expression (IHC) (bone marrow; compared to Con and DMSO group): significantly increased p53 expression
- EGFP‐MDM2 maximal degradation efficacy (EGFP‐MDM2; 1 µM): 84%
- Dmax (EGFP signal intensity) (EGFP‐MDM2; EGFP‐MDM2 expressing cells, 1 nM to 50 µM, n = 3): 1 μΜ
- DC50 (EGFP‐MDM2; EGFP‐MDM2 expressing cells, 1 nM to 50 µM, n = 3, read-out: DC50 (EGFP signal intensity)): 250 nM
- concentration at which maximum degradation efficiency was achieved (EGFP‐MDM2; live imaging, 0.01 to 10 µM): 10 µM
- nuclear EGFP signal (EGFP‐MDM2; live imaging, treatment for 4 h): almost completely turned off the nuclear EGFP signal
